Several values for one entry are separate records, joined by “and”; a condition that tells them apart may be missing. Equal values may be shown once. Entries after “also recorded” stand apart in the source; their conditions may differ.
Columns and labels:
[1] = test system: cisplatin-induced hearing loss in patients with head and neck cancer; assay: Clinical hearing status (PTA of 1, 2 and 4 kHz) at follow-up after cisplatin therapy; type: in vivo, human
[2] = Schachter et al., 2005; cited from earlier work
[3] = test system: cisplatin-induced hearing loss in mice; conditions: cyclic administration of cisplatin; ABR testing; cited from earlier work
[4] = test system: heme oxygenase-1 (Hmox-1); conditions: mice; cited from earlier work
[5] = test system: spiral ganglion neurons (SGN); conditions: mouse model of noise-induced hearing loss; cited from earlier work
[6] = cited from earlier work; for hepatoselectivity: compared with lipophilic agents
[7] = test system: cytochrome P(450) enzymes; conditions: Schachter et al., 2005; cited from earlier work
[8] = test system: low-density lipoprotein cholesterol; conditions: clinical studies, comparison among statins; cited from earlier work
[9] = test system: patients treated with atorvastatin; conditions: cited from earlier work
[10] = test system: cisplatin-induced hearing loss in patients with head and neck cancer
Text: (§1) The primary outcome measure was the difference in incidence of a change in hearing between the baseline hearing test and the post-treatment hearing test, per ear, as defined by established ototoxicity grading scales. These scales report subjects who transition from normal hearing to hearing loss as well as those who transition from some hearing loss to more hearing loss. The criteria of two different grading scales was applied to the dataset (Table 4). The NCI CTCAEv5.0(34) classifies adverse changes in hearing based on auditory threshold shifts across a 1-8 KHz frequency range. TUNE ototoxicity grading criteria (Theunissen et al., 2014), which incorporate extended high frequency (EHF) data was also applied (see Table 5, FIG. 5).
(§2) The primary outcome measure was based on changes in hearing as defined by CTCAEv5.0 scale criteria (see Table 4) and were analyzed using categorical incidence (per ear) data. The incidence and severity distribution of a clinically meaningful hearing change, per ear, relative to statin use was analyzed using chi-square analyses (SAS PROC FREQ procedure). […] A logistic regression analysis (SAS PROC LOGISTIC procedure) with calculation of odds ratios and 95% confidence intervals was performed to identify associations between CTCAE-defined changes in hearing and statin use after adjustment for significant covariates.

[11] = test system: cisplatin-induced hearing loss in patients with head and neck cancer; remark: listed apart in the source
Text: as §1
Changes in hearing were primarily defined using CTCAEv5.0 criteria (Theunissen et al., 2014). However, cisplatin-induced ototoxicity is characterized initially as a high frequency (above 8 kHz) hearing loss that can spread to include lower frequencies (Brock et al., 1991). Therefore, the TUNE grading scale (Theunissen et al., 2014) was applied, which reports incidence and severity of hearing loss based on shifts in auditory thresholds across two frequency ranges: 1-4 kHz and 8-12.5 kHz (Table 4). The higher-frequency range of the TUNE scale was modified to include 6, 8 and 12.5 kHz due to insufficient data at 10 kHz in the dataset. Because many of the subjects had some hearing loss at baseline, the TUNE criteria was further modified so that Grades 3 and 4 utilized threshold shift data instead of absolute thresholds. A TUNE Grade 3 was redefined for this study as a ≥35 dB PTA threshold shift from the baseline to the post-treatment audiogram, and similarly Grade 4 was redefined as a ≥50 dB PTA threshold shift.
as §2, with “Changes” for “The primary outcome measure was based on changes”, “hearing,” for “hearing as”, “TUNE criteria,” for “CTCAEv5.0 scale criteria (see Table 4) and”, “TUNE-defined” for “CTCAE-defined”

patients with HNSCC = assay: 3-year overall and disease-free survival (Kaplan-Meier, log-rank); type: in vivo, human; conditions: URMC data n=175; log-rank (Mantel-Cox)
Method: Overall survival and disease-free survival were calculated as Kaplan-Meier curves using Prism v8 software on all available data from URMC at up to 3 years post treatment (N=175). Survival curves were compared using the log-rank (Mantel-Cox) test. Cochlear radiation dose data presented in FIG. 6 were analyzed using Pearson R and Spearman R correlation analysis within Prism v8.
Overall survival at 3 years was approximately 80% (FIG. 4). An exact median survival time could not be calculated due to the number of patients censored/lost to follow-up.

[12] = test system: cisplatin-induced hearing loss in patients with head and neck cancer; conditions: in vivo
[13] = controlled for cumulative cisplatin dose and baseline hearing
[14] = package insert, rate greater than placebo

CC[C@H](C)C(=O)O[C@H]1C[C@@H](C)C=C2C=C[C@H](C)[C@H](CC[C@@H]3C[C@@H](O)CC(=O)O3)[C@H]21 [lovastatin]
hearing status at follow-up: Mild (PTA >20, <40), number of ears ([1]; post-cisplatin therapy): 4 No. Ears
hearing status at follow-up: Mild (PTA >20, <40), percent of ears ([1]; post-cisplatin therapy): (100.00) %
hearing status at follow-up: Moderate (PTA ≥40, ≤70), number of ears ([1]; post-cisplatin therapy): 0 No. Ears
hearing status at follow-up: Normal (PTA ≤20), number of ears ([1]; post-cisplatin therapy): 0 No. Ears
hearing status at follow-up: Profound (PTA ≥95), number of ears ([1]; post-cisplatin therapy): 0 No. Ears
hearing status at follow-up: Severe (PTA >70, <95), number of ears ([1]; post-cisplatin therapy): 0 No. Ears
lipophilicity [2]: relatively lipophilic
effect on cisplatin-induced hearing loss / ototoxicity in mice [3]: reduces cisplatin-induced hearing loss; also recorded: reduced cisplatin ototoxicity
Hmox-1 mRNA [4]: induced Hmox-1 mRNA
elongation of SGN processes [5]: promoted the elongation of SGN processes

CC(C)c1nc(N(C)S(C)(=O)=O)nc(-c2ccc(F)cc2)c1/C=C/[C@@H](O)C[C@@H](O)CC(=O)O [rosuvastatin]
hearing status at follow-up: Mild (PTA >20, <40), number of ears ([1]; post-cisplatin therapy): 14 No. Ears
hearing status at follow-up: Mild (PTA >20, <40), percent of ears ([1]; post-cisplatin therapy): (63.64) %
hearing status at follow-up: Moderate (PTA ≥40, ≤70), number of ears ([1]; post-cisplatin therapy): 6 No. Ears
hearing status at follow-up: Moderate (PTA ≥40, ≤70), percent of ears ([1]; post-cisplatin therapy): (27.27) %
hearing status at follow-up: Normal (PTA ≤20), number of ears ([1]; post-cisplatin therapy): 2 No. Ears
hearing status at follow-up: Normal (PTA ≤20), percent of ears ([1]; post-cisplatin therapy): (9.09) %
hearing status at follow-up: Profound (PTA ≥95), number of ears ([1]; post-cisplatin therapy): 0 No. Ears
hearing status at follow-up: Severe (PTA >70, <95), number of ears ([1]; post-cisplatin therapy): 0 No. Ears
hepatoselectivity ([6]; Schachter et al., 2005): greater hepatoselectivity
lipophilicity [2]: relatively hydrophilic
metabolism by the cytochrome P(450) system [7]: not significantly metabolized
effectiveness for reducing low-density lipoprotein cholesterol [8]: most effective

CC(C)c1c(C(=O)Nc2ccccc2)c(-c2ccccc2)c(-c2ccc(F)cc2)n1CC[C@@H](O)C[C@@H](O)CC(=O)[O-].CC(C)c1c(C(=O)Nc2ccccc2)c(-c2ccccc2)c(-c2ccc(F)cc2)n1CC[C@@H](O)C[C@@H](O)CC(=O)[O-].[Ca+2] [atorvastatin calcium]
incidence of persistent serum transaminase elevations, 10 mg ([9]; human, in vivo): 0.2%
incidence of persistent serum transaminase elevations, 20 mg ([9]; human, in vivo): 0.2%
incidence of persistent serum transaminase elevations, 40 mg ([9]; human, in vivo): 0.6%
incidence of persistent serum transaminase elevations, 80 mg ([9]; human, in vivo): 2.3%
patients with persistent elevations (>3 times ULN on 2 or more occasions) in serum transaminases ([9]; human, in vivo): 0.7%

CC(C)c1c(C(=O)Nc2ccccc2)c(-c2ccccc2)c(-c2ccc(F)cc2)n1CC[C@@H](O)C[C@@H](O)CC(=O)O [atorvastatin]
hearing loss, CTCAEv5.0 Grade ≥2 criteria, retrospective data used for power analysis ([10]; atorvastatin (20 mg) group as worded): ~16.7%
less likely to acquire a CTCAE-defined cisplatin-induced hearing loss than a non-statin user [10, 13]: 53%
less likely to develop a cisplatin-related hearing loss, once daily atorvastatin vs not on atorvastatin ([10]; observational data): 45%
OR for cisplatin-related hearing loss, once daily atorvastatin vs not on atorvastatin ([10]; observational data, 95% CI: 0.327-0.942): 0.55
incidence of a CTCAEv5.0-grade hearing loss, patients ([10]; per patient, in at least one ear): 46%
incidence of CTCAE grade ≥2 hearing change ([10]; percentage of ears): 9.7%
incidence of CTCAE Grade 1 or higher hearing loss ([10]; percentage of ears, full cohort): 31.2% and 31%
incidence of CTCAE-defined hearing loss, chemoradiation therapy ([10]; subgroup, % of ears): 31.2%
incidence of CTCAE-defined hearing loss, higher cumulative cisplatin doses (>200 mg/m^2) ([10]; subgroup, % of ears): 31.7%
incidence of CTCAE-defined hearing loss, males ([10]; subgroup, % of ears): 30.4%
incidence of CTCAE-defined hearing loss, mild hearing loss at baseline ([10]; subgroup, % of ears): 26.8%
less likely to acquire a TUNE-defined cisplatin-induced hearing loss than a non-statin user [11, 13]: 56%
incidence of TUNE grade 2 or higher change in hearing ([11]; in vivo): 14.4%
incidence of TUNE Grade 1 or higher hearing loss ([11]; percent of ears): 34%
3-year disease-free survival compared with non-statin users (patients with HNSCC): no significant differences
3-year overall survival compared with non-statin users (patients with HNSCC): did not have a significant effect on patient survival; also recorded: no significant differences
hearing status at follow-up: Mild (PTA >20, <40), number of ears ([1]; post-cisplatin therapy): 49 No. Ears
hearing status at follow-up: Mild (PTA >20, <40), percent of ears ([1]; post-cisplatin therapy): (50.52) %
hearing status at follow-up: Moderate (PTA ≥40, ≤70), number of ears ([1]; post-cisplatin therapy): 21 No. Ears
hearing status at follow-up: Moderate (PTA ≥40, ≤70), percent of ears ([1]; post-cisplatin therapy): (21.65) %
hearing status at follow-up: Normal (PTA ≤20), number of ears ([1]; post-cisplatin therapy): 26 No. Ears
hearing status at follow-up: Normal (PTA ≤20), percent of ears ([1]; post-cisplatin therapy): (26.80) %
hearing status at follow-up: Profound (PTA ≥95), number of ears ([1]; post-cisplatin therapy): 3 No. Ears
hearing status at follow-up: Profound (PTA ≥95), percent of ears ([1]; post-cisplatin therapy): (3.00) %
hearing status at follow-up: Severe (PTA >70, <95), number of ears ([1]; post-cisplatin therapy): 1 No. Ears
hearing status at follow-up: Severe (PTA >70, <95), percent of ears ([1]; post-cisplatin therapy): (1.03) %
elongation of SGN processes [5]: promoted the elongation of SGN processes
safety and tolerability of the 20 mg dose ([9]; 20 mg once daily, adults, literature, listed as Atorvastatin): very low incidence of adverse effects
Food and Drug Administration pregnancy classification ([9]; human, in vivo): Category X
alanine aminotransferase increase leading to treatment discontinuation [9, 14]: 0.4%
diarrhea leading to treatment discontinuation [9, 14]: 0.5%
hepatic enzyme increase leading to treatment discontinuation [9, 14]: 0.4%
myalgia leading to treatment discontinuation [9, 14]: 0.7%
nausea leading to treatment discontinuation [9, 14]: 0.4%

N.N.[Cl][Pt][Cl] [cisplatin]
individuals with clinically meaningful hearing loss after cisplatin therapy, TUNE criteria ([11]; in vivo): up to 53%
high-frequency threshold shift after cisplatin therapy [12]: 13.7 dB

CC(C)n1c(/C=C/C(O)CC(O)CC(=O)O)c(-c2ccc(F)cc2)c2ccccc21 (stereo not drawn) [fluvastatin]
elimination half-life ([6]; Schachter et al., 2005): 1 h
lipophilicity [2]: relatively lipophilic

CCC(C)(C)C(=O)O[C@H]1C[C@@H](C)C=C2C=C[C@H](C)[C@H](CC[C@@H]3C[C@@H](O)CC(=O)O3)[C@H]21 [simvastatin]
half-life ([6]; Sirtori et al., 2014): 12 h

CC[C@H](C)C(=O)O[C@H]1C[C@H](O)C=C2C=C[C@H](C)[C@H](CC[C@@H](O)C[C@@H](O)CC(=O)O)[C@H]21 [pravastatin]
hearing status at follow-up: Mild (PTA >20, <40), number of ears ([1]; post-cisplatin therapy): 8 No. Ears
hearing status at follow-up: Mild (PTA >20, <40), percent of ears ([1]; post-cisplatin therapy): (33.33) %
hearing status at follow-up: Moderate (PTA ≥40, ≤70), number of ears ([1]; post-cisplatin therapy): 6 No. Ears
hearing status at follow-up: Moderate (PTA ≥40, ≤70), percent of ears ([1]; post-cisplatin therapy): (25.00) %
hearing status at follow-up: Normal (PTA ≤20), number of ears ([1]; post-cisplatin therapy): 9 No. Ears
hearing status at follow-up: Normal (PTA ≤20), percent of ears ([1]; post-cisplatin therapy): (37.50) %
hearing status at follow-up: Profound (PTA ≥95), number of ears ([1]; post-cisplatin therapy): 0 No. Ears
hearing status at follow-up: Severe (PTA >70, <95), number of ears ([1]; post-cisplatin therapy): 1 No. Ears
hearing status at follow-up: Severe (PTA >70, <95), percent of ears ([1]; post-cisplatin therapy): (4.17) %
hepatoselectivity ([6]; Schachter et al., 2005): greater hepatoselectivity
lipophilicity [2]: relatively hydrophilic
metabolism by the cytochrome P(450) system [7]: not significantly metabolized

O=C(O)C[C@H](O)C[C@H](O)/C=C/c1c(C2CC2)nc2ccccc2c1-c1ccc(F)cc1 [pitavastatin]
change of hearing status over cisplatin therapy, in words ([1]; n=2 subjects): started and ended therapy with a bilateral mild hearing loss
hearing status at follow-up: Mild (PTA >20, <40), number of ears ([1]; post-cisplatin therapy): 4 No. Ears
hearing status at follow-up: Mild (PTA >20, <40), percent of ears ([1]; post-cisplatin therapy): (100.00) %
hearing status at follow-up: Moderate (PTA ≥40, ≤70), number of ears ([1]; post-cisplatin therapy): 0 No. Ears
hearing status at follow-up: Normal (PTA ≤20), number of ears ([1]; post-cisplatin therapy): 0 No. Ears
hearing status at follow-up: Profound (PTA ≥95), number of ears ([1]; post-cisplatin therapy): 0 No. Ears
hearing status at follow-up: Severe (PTA >70, <95), number of ears ([1]; post-cisplatin therapy): 0 No. Ears
lipophilicity [2]: relatively lipophilic
metabolism by the cytochrome P(450) system [7]: limited metabolism

— patent publication US20240293361A1, “Use of Statins to Treat or Prevent Drug-Induced Hearing Loss” (The United States of America, as represented by the …, priority 2020, published 2024)
